In the NIST ThermoML archive (doi:10.1021/je100170v):

Legend:
[1] = Liquid; for mass density / speed of sound: 101 kPa; for speed of sound: Sing-around technique in a fixed-path interferometer; for viscosity: 101.3 kPa
[2] = xn = mol fraction of the nth substance listed; conditions: 101 kPa, Liquid; for speed of sound: Sing-around technique in a fixed-path interferometer

COCCO [2-methoxyethan-1-ol]
[1]
Conditions	mass density [kg/m3]	speed of sound [m/s]	viscosity [mPa·s]
298.15 K	959.5	1339.3	1.543
308.15 K	952.1	–	1.256
318.15 K	945.8	–	1.047

COCCO [2-methoxyethan-1-ol] + CCCCCCCCO
[2]
Conditions	mass density, 298.15 K [kg/m3]	mass density, 308.15 K [kg/m3]	mass density, 318.15 K [kg/m3]	speed of sound, 298.15 K [m/s]	viscosity, 298.15 K [mPa·s]	viscosity, 308.15 K [mPa·s]	viscosity, 318.15 K [mPa·s]
x2 = 0	959.5	952.1	945.8	1339.3	1.543	1.256	1.047
x2 = 0.061	943	935.6	929.5	1334.3	1.677	1.368	1.141
x2 = 0.1275	927.1	920	913.8	1329.3	1.822	1.454	1.209
x2 = 0.2003	912.1	904.9	898.8	1323	1.983	1.582	1.304
x2 = 0.2804	897.4	890.5	884.4	1318	2.145	1.749	1.426
x2 = 0.3688	883.4	876.4	870.5	1314.6	2.408	1.948	1.571
x2 = 0.4671	869.9	862.9	857	1315.4	2.774	2.19	1.781
x2 = 0.5769	857	850	844	1320	3.432	2.67	2.062
x2 = 0.7004	844.6	837.6	831.5	1326.5	4.238	3.19	2.466
x2 = 0.8402	832.8	825.6	819.4	1335.8	5.412	4.012	3.064

CC(=O)N(C)C [N,N-dimethylethanamide]
[1]
Conditions	mass density [kg/m3]	speed of sound [m/s]	viscosity [mPa·s]
298.15 K	937.2	1458.2	0.937
308.15 K	925.8	–	0.841
318.15 K	917.1	–	0.763

CC(=O)N(C)C [N,N-dimethylethanamide] + CCCCCCCCO
[2]
Conditions	mass density, 298.15 K [kg/m3]	mass density, 308.15 K [kg/m3]	mass density, 318.15 K [kg/m3]	speed of sound, 298.15 K [m/s]	viscosity, 298.15 K [mPa·s]	viscosity, 308.15 K [mPa·s]	viscosity, 318.15 K [mPa·s]
x2 = 0	937.2	925.8	917.1	1458.2	0.937	0.841	0.763
x2 = 0.0692	923.5	912.7	904.4	1433.5	1.072	0.942	0.851
x2 = 0.1433	910.4	900.2	892.2	1412.4	1.246	1.063	0.947
x2 = 0.2228	897.7	888.1	880.4	1390.3	1.418	1.194	1.046
x2 = 0.3084	885.5	876.3	868.9	1372.5	1.702	1.376	1.185
x2 = 0.4008	873.7	864.8	857.8	1360	2.023	1.614	1.361
x2 = 0.5009	862.3	853.9	847	1353.4	2.399	1.893	1.585
x2 = 0.6095	851.4	843.4	836.7	1348.5	3.111	2.406	1.935
x2 = 0.728	840.9	833.1	826.6	1346.4	4.009	2.988	2.35
x2 = 0.8576	830.9	823.4	816.9	1348	5.318	3.849	2.965

CC(=O)c1ccccc1 [acetophenone]
[1]
Conditions	mass density [kg/m3]	speed of sound [m/s]	viscosity [mPa·s]
298.15 K	1023.1	1296.2	1.653
308.15 K	1014.9	–	1.411
318.15 K	1007.2	–	1.115

CC(=O)c1ccccc1 [acetophenone] + CCCCCCCCO
[2]
Conditions	mass density, 298.15 K [kg/m3]	mass density, 308.15 K [kg/m3]	mass density, 318.15 K [kg/m3]	speed of sound, 298.15 K [m/s]	viscosity, 298.15 K [mPa·s]	viscosity, 308.15 K [mPa·s]	viscosity, 318.15 K [mPa·s]
x2 = 0	1023.1	1014.9	1007.2	1296.2	1.653	1.411	1.115
x2 = 0.093	997.7	989.7	982.4	1278.5	1.713	1.528	1.208
x2 = 0.1874	973.7	966.1	958.9	1266.5	1.831	1.669	1.327
x2 = 0.2834	951.2	943.6	936.6	1263.3	1.994	1.785	1.424
x2 = 0.3808	929.7	922.2	915.5	1264.7	2.205	1.949	1.535
x2 = 0.4799	909.3	902	895.3	1271.8	2.519	2.167	1.671
x2 = 0.5805	889.8	882.5	876	1281.8	2.997	2.4	1.807
x2 = 0.6828	871.3	864.1	857.7	1295.4	3.65	2.799	2.095
x2 = 0.7868	853.8	846.6	840.2	1311.1	4.475	3.249	2.432
x2 = 0.8925	837.1	829.9	823.6	1327.8	5.625	3.931	2.926

CCCCCCCCO [octan-1-ol]
[1]
Conditions	mass density [kg/m3]	speed of sound [m/s]	viscosity [mPa·s]
298.15 K	821.5	1349.2	7.365
308.15 K	814	–	5.251
318.15 K	807.7	–	3.865

CCCCCCCCO [octan-1-ol] + CC(=O)N(C)C
[2], x1 = 1
Conditions	mass density [kg/m3]	speed of sound [m/s]	viscosity [mPa·s]
298.15 K	821.5	1349.2	7.365
308.15 K	814	–	5.251
318.15 K	807.7	–	3.865

CCCCCCCCO [octan-1-ol] + CC(=O)c1ccccc1
[2], x1 = 1
Conditions	mass density [kg/m3]	speed of sound [m/s]	viscosity [mPa·s]
298.15 K	821.5	1349.2	7.365
308.15 K	814	–	5.251
318.15 K	807.7	–	3.865

CCCCCCCCO [octan-1-ol] + COCCO
[2], x1 = 1
Conditions	mass density [kg/m3]	speed of sound [m/s]	viscosity [mPa·s]
298.15 K	821.5	1349.2	7.365
308.15 K	814	–	5.251
318.15 K	807.7	–	3.865
